Experimental data taken from ChEMBL document CHEMBL4651402, “Screening of ~5500 FDA-approved drugs and clinical candidates for anti-SARS-CoV-2 activity” (2021).

System: SARS-CoV-2
Experiment: microbe, parasite or virus in culture
Type: functional, organism-based, Chlorocebus sabaeus, Vero C1008
Conditions: Severe acute respiratory syndrome coronavirus 2, Vero C1008, 48 h; read-out: IC50

Compound	IC50
O=C(NC1CN2CCC1CC2)c1cc(Cl)cc2c1OC1CCCCC21 (stereo not given)	> 25.1 µM
CC(C)(C)NC[C@H](O)COc1ccccc1C1CCCC1 [PENBUTOLOL]	20 µM
CC(=O)c1ccc2c(c1)N(CCCN1CCN(CCO)CC1)c1ccccc1S2 [ACETOPHENAZINE]	> 100 µM
CCCCCCC(C)(C)c1cc(O)c2c(c1)OC(C)(C)C1CCC(=O)CC21 (stereo not given) [NABILONE]	> 25.1 µM
CN(C)CC/C=C1/c2ccccc2Sc2ccc(Cl)cc21 [CHLORPROTHIXENE]	> 100 µM
CN1CCC(=C2c3ccccc3Oc3ccc(Cl)cc32)CC1 [CLOPIPAZAN]	> 100 µM
Cc1[nH]c(/C=C2\C(=O)Nc3ccccc32)c(C)c1CCC(=O)O [ORANTINIB]	> 25.1 µM
COC(=O)N[C@H](C(=O)N1CCC[C@H]1c1nc(-c2ccc3cc(-c4ccc5[nH]c([C@@H]6CCCN6C(=O)[C@@H](NC(=O)OC)C(C)C)nc5c4)ccc3c2)c[nH]1)C(C)C	> 100 µM
CN(C(=O)CN(CCO)CC(=O)N(C)C(C)(C)Cc1ccccc1)C(C)(C)Cc1ccccc1 [OXETHAZAINE]	> 100 µM
CC(=O)c1ccc2c(c1)N(CCCN(C)C)c1ccccc1S2 [ACEPROMAZINE]	> 100 µM
CC[C@@H]1C(=O)N(C)c2cnc(Nc3ccc(C(=O)N[C@H]4CC[C@H](N5CCN(CC6CC6)CC5)CC4)cc3OC)nc2N1C(C)C [VOLASERTIB]	> 50.1 µM
CC(=O)[C@@]12OC(C)(c3ccccc3)O[C@@H]1CC1C3CCC4=CC(=O)CCC4(C)C3CCC12C (stereo not given in full)	> 12.6 µM
CO[C@H]1CC[C@H](n2c([C@H]3CCCC(=O)N3c3ccc(F)c(F)c3)nc3cc(-c4c(C)noc4C)ccc32)CC1 (relative stereo)	> 100 µM
CN1CCCC(n2nc(Cc3ccc(Cl)cc3)c3ccccc3c2=O)CC1 (stereo not given) [AZELASTINE]	> 100 µM
Cc1ccccc1CN1CCN(CCOC(c2ccccc2)c2ccccc2Cl)CC1 (stereo not given) [CHLORBENZOXAMINE]	> 25.1 µM

Same assay, conditions: Severe acute respiratory syndrome coronavirus 2, Vero C1008, 48 h; read-out: pIC50 (converted)

Compound	IC50
O=C(NC1CN2CCC1CC2)c1cc(Cl)cc2c1OC1CCCCC21 (stereo not given)	> 25.1 µM
CC(C)(C)NC[C@H](O)COc1ccccc1C1CCCC1 [PENBUTOLOL]	20 µM
CC(=O)c1ccc2c(c1)N(CCCN1CCN(CCO)CC1)c1ccccc1S2 [ACETOPHENAZINE]	> 100 µM
CCCCCCC(C)(C)c1cc(O)c2c(c1)OC(C)(C)C1CCC(=O)CC21 (stereo not given) [NABILONE]	> 25.1 µM
CN(C)CC/C=C1/c2ccccc2Sc2ccc(Cl)cc21 [CHLORPROTHIXENE]	> 100 µM
CN1CCC(=C2c3ccccc3Oc3ccc(Cl)cc32)CC1 [CLOPIPAZAN]	> 100 µM
Cc1[nH]c(/C=C2\C(=O)Nc3ccccc32)c(C)c1CCC(=O)O [ORANTINIB]	> 25.1 µM
COC(=O)N[C@H](C(=O)N1CCC[C@H]1c1nc(-c2ccc3cc(-c4ccc5[nH]c([C@@H]6CCCN6C(=O)[C@@H](NC(=O)OC)C(C)C)nc5c4)ccc3c2)c[nH]1)C(C)C	> 100 µM
CN(C(=O)CN(CCO)CC(=O)N(C)C(C)(C)Cc1ccccc1)C(C)(C)Cc1ccccc1 [OXETHAZAINE]	> 100 µM
CC(=O)c1ccc2c(c1)N(CCCN(C)C)c1ccccc1S2 [ACEPROMAZINE]	> 100 µM
CC[C@@H]1C(=O)N(C)c2cnc(Nc3ccc(C(=O)N[C@H]4CC[C@H](N5CCN(CC6CC6)CC5)CC4)cc3OC)nc2N1C(C)C [VOLASERTIB]	> 50.1 µM
CC(=O)[C@@]12OC(C)(c3ccccc3)O[C@@H]1CC1C3CCC4=CC(=O)CCC4(C)C3CCC12C (stereo not given in full)	> 12.6 µM
CO[C@H]1CC[C@H](n2c([C@H]3CCCC(=O)N3c3ccc(F)c(F)c3)nc3cc(-c4c(C)noc4C)ccc32)CC1 (relative stereo)	> 100 µM
CN1CCCC(n2nc(Cc3ccc(Cl)cc3)c3ccccc3c2=O)CC1 (stereo not given) [AZELASTINE]	> 100 µM
Cc1ccccc1CN1CCN(CCOC(c2ccccc2)c2ccccc2Cl)CC1 (stereo not given) [CHLORBENZOXAMINE]	> 25.1 µM

System: not listed separately
Experiment: in vitro
Conditions: chlorocebus sabaeus, Vero E6 (Vero C1008) cells, CC50

Compound	CC50 at 48 h
O=C(NC1CN2CCC1CC2)c1cc(Cl)cc2c1OC1CCCCC21 (stereo not given)	21.6 µM
CC(C)(C)NC[C@H](O)COc1ccccc1C1CCCC1 [PENBUTOLOL]	29.5 µM
CC(=O)c1ccc2c(c1)N(CCCN1CCN(CCO)CC1)c1ccccc1S2 [ACETOPHENAZINE]	~14.6 µM
CCCCCCC(C)(C)c1cc(O)c2c(c1)OC(C)(C)C1CCC(=O)CC21 (stereo not given) [NABILONE]	11.1 µM
CN(C)CC/C=C1/c2ccccc2Sc2ccc(Cl)cc21 [CHLORPROTHIXENE]	13.8 µM
CN1CCC(=C2c3ccccc3Oc3ccc(Cl)cc32)CC1 [CLOPIPAZAN]	15 µM
Cc1[nH]c(/C=C2\C(=O)Nc3ccccc32)c(C)c1CCC(=O)O [ORANTINIB]	> 25.1 µM
COC(=O)N[C@H](C(=O)N1CCC[C@H]1c1nc(-c2ccc3cc(-c4ccc5[nH]c([C@@H]6CCCN6C(=O)[C@@H](NC(=O)OC)C(C)C)nc5c4)ccc3c2)c[nH]1)C(C)C	12.7 µM
CN(C(=O)CN(CCO)CC(=O)N(C)C(C)(C)Cc1ccccc1)C(C)(C)Cc1ccccc1 [OXETHAZAINE]	26.3 µM
CC(=O)c1ccc2c(c1)N(CCCN(C)C)c1ccccc1S2 [ACEPROMAZINE]	22.4 µM
CC[C@@H]1C(=O)N(C)c2cnc(Nc3ccc(C(=O)N[C@H]4CC[C@H](N5CCN(CC6CC6)CC5)CC4)cc3OC)nc2N1C(C)C [VOLASERTIB]	0.234 µM
CC(=O)[C@@]12OC(C)(c3ccccc3)O[C@@H]1CC1C3CCC4=CC(=O)CCC4(C)C3CCC12C (stereo not given in full)	15.5 µM
CO[C@H]1CC[C@H](n2c([C@H]3CCCC(=O)N3c3ccc(F)c(F)c3)nc3cc(-c4c(C)noc4C)ccc32)CC1 (relative stereo)	9.12 µM
CN1CCCC(n2nc(Cc3ccc(Cl)cc3)c3ccccc3c2=O)CC1 (stereo not given) [AZELASTINE]	17.8 µM
Cc1ccccc1CN1CCN(CCOC(c2ccccc2)c2ccccc2Cl)CC1 (stereo not given) [CHLORBENZOXAMINE]	15.3 µM

Same assay, conditions: chlorocebus sabaeus, Vero E6 (Vero C1008) cells, pCC50

Compound	CC50 at 48 h
O=C(NC1CN2CCC1CC2)c1cc(Cl)cc2c1OC1CCCCC21 (stereo not given)	21.4 µM
CC(C)(C)NC[C@H](O)COc1ccccc1C1CCCC1 [PENBUTOLOL]	29.5 µM
CC(=O)c1ccc2c(c1)N(CCCN1CCN(CCO)CC1)c1ccccc1S2 [ACETOPHENAZINE]	~14.5 µM
CCCCCCC(C)(C)c1cc(O)c2c(c1)OC(C)(C)C1CCC(=O)CC21 (stereo not given) [NABILONE]	11 µM
CN(C)CC/C=C1/c2ccccc2Sc2ccc(Cl)cc21 [CHLORPROTHIXENE]	13.8 µM
CN1CCC(=C2c3ccccc3Oc3ccc(Cl)cc32)CC1 [CLOPIPAZAN]	14.8 µM
Cc1[nH]c(/C=C2\C(=O)Nc3ccccc32)c(C)c1CCC(=O)O [ORANTINIB]	> 25.1 µM
COC(=O)N[C@H](C(=O)N1CCC[C@H]1c1nc(-c2ccc3cc(-c4ccc5[nH]c([C@@H]6CCCN6C(=O)[C@@H](NC(=O)OC)C(C)C)nc5c4)ccc3c2)c[nH]1)C(C)C	12.6 µM
CN(C(=O)CN(CCO)CC(=O)N(C)C(C)(C)Cc1ccccc1)C(C)(C)Cc1ccccc1 [OXETHAZAINE]	26.3 µM
CC(=O)c1ccc2c(c1)N(CCCN(C)C)c1ccccc1S2 [ACEPROMAZINE]	22.4 µM
CC[C@@H]1C(=O)N(C)c2cnc(Nc3ccc(C(=O)N[C@H]4CC[C@H](N5CCN(CC6CC6)CC5)CC4)cc3OC)nc2N1C(C)C [VOLASERTIB]	0.234 µM
CC(=O)[C@@]12OC(C)(c3ccccc3)O[C@@H]1CC1C3CCC4=CC(=O)CCC4(C)C3CCC12C (stereo not given in full)	15.5 µM
CO[C@H]1CC[C@H](n2c([C@H]3CCCC(=O)N3c3ccc(F)c(F)c3)nc3cc(-c4c(C)noc4C)ccc32)CC1 (relative stereo)	9.12 µM
CN1CCCC(n2nc(Cc3ccc(Cl)cc3)c3ccccc3c2=O)CC1 (stereo not given) [AZELASTINE]	17.8 µM
Cc1ccccc1CN1CCN(CCOC(c2ccccc2)c2ccccc2Cl)CC1 (stereo not given) [CHLORBENZOXAMINE]	15.1 µM

System: SARS-CoV-2
Experiment: microbe, parasite or virus in culture
Conditions: Severe acute respiratory syndrome coronavirus 2, Vero C1008, 48 h

Compound	IC50
O=C(NC1CN2CCC1CC2)c1cc(Cl)cc2c1OC1CCCCC21 (stereo not given)	7.94 µM
CC(C)(C)NC[C@H](O)COc1ccccc1C1CCCC1 [PENBUTOLOL]	15.1 µM
CC(=O)c1ccc2c(c1)N(CCCN1CCN(CCO)CC1)c1ccccc1S2 [ACETOPHENAZINE]	> 100 µM
CCCCCCC(C)(C)c1cc(O)c2c(c1)OC(C)(C)C1CCC(=O)CC21 (stereo not given) [NABILONE]	8.91 µM
CN(C)CC/C=C1/c2ccccc2Sc2ccc(Cl)cc21 [CHLORPROTHIXENE]	7.08 µM
CN1CCC(=C2c3ccccc3Oc3ccc(Cl)cc32)CC1 [CLOPIPAZAN]	> 20 µM
Cc1[nH]c(/C=C2\C(=O)Nc3ccccc32)c(C)c1CCC(=O)O [ORANTINIB]	~1.78 µM
COC(=O)N[C@H](C(=O)N1CCC[C@H]1c1nc(-c2ccc3cc(-c4ccc5[nH]c([C@@H]6CCCN6C(=O)[C@@H](NC(=O)OC)C(C)C)nc5c4)ccc3c2)c[nH]1)C(C)C	> 100 µM
CN(C(=O)CN(CCO)CC(=O)N(C)C(C)(C)Cc1ccccc1)C(C)(C)Cc1ccccc1 [OXETHAZAINE]	18.6 µM
CC(=O)c1ccc2c(c1)N(CCCN(C)C)c1ccccc1S2 [ACEPROMAZINE]	> 100 µM
CC[C@@H]1C(=O)N(C)c2cnc(Nc3ccc(C(=O)N[C@H]4CC[C@H](N5CCN(CC6CC6)CC5)CC4)cc3OC)nc2N1C(C)C [VOLASERTIB]	> 50.1 µM
CC(=O)[C@@]12OC(C)(c3ccccc3)O[C@@H]1CC1C3CCC4=CC(=O)CCC4(C)C3CCC12C (stereo not given in full)	> 100 µM
CO[C@H]1CC[C@H](n2c([C@H]3CCCC(=O)N3c3ccc(F)c(F)c3)nc3cc(-c4c(C)noc4C)ccc32)CC1 (relative stereo)	> 100 µM
CN1CCCC(n2nc(Cc3ccc(Cl)cc3)c3ccccc3c2=O)CC1 (stereo not given) [AZELASTINE]	13.3 µM
Cc1ccccc1CN1CCN(CCOC(c2ccccc2)c2ccccc2Cl)CC1 (stereo not given) [CHLORBENZOXAMINE]	> 100 µM

Same assay, conditions: Severe acute respiratory syndrome coronavirus 2, Vero C1008, 48 h, read-out: pIC50 (converted)

Compound	IC50
O=C(NC1CN2CCC1CC2)c1cc(Cl)cc2c1OC1CCCCC21 (stereo not given)	7.94 µM
CC(C)(C)NC[C@H](O)COc1ccccc1C1CCCC1 [PENBUTOLOL]	15.1 µM
CC(=O)c1ccc2c(c1)N(CCCN1CCN(CCO)CC1)c1ccccc1S2 [ACETOPHENAZINE]	> 100 µM
CCCCCCC(C)(C)c1cc(O)c2c(c1)OC(C)(C)C1CCC(=O)CC21 (stereo not given) [NABILONE]	8.91 µM
CN(C)CC/C=C1/c2ccccc2Sc2ccc(Cl)cc21 [CHLORPROTHIXENE]	7.08 µM
CN1CCC(=C2c3ccccc3Oc3ccc(Cl)cc32)CC1 [CLOPIPAZAN]	> 20 µM
Cc1[nH]c(/C=C2\C(=O)Nc3ccccc32)c(C)c1CCC(=O)O [ORANTINIB]	~1.78 µM
COC(=O)N[C@H](C(=O)N1CCC[C@H]1c1nc(-c2ccc3cc(-c4ccc5[nH]c([C@@H]6CCCN6C(=O)[C@@H](NC(=O)OC)C(C)C)nc5c4)ccc3c2)c[nH]1)C(C)C	> 100 µM
CN(C(=O)CN(CCO)CC(=O)N(C)C(C)(C)Cc1ccccc1)C(C)(C)Cc1ccccc1 [OXETHAZAINE]	18.6 µM
CC(=O)c1ccc2c(c1)N(CCCN(C)C)c1ccccc1S2 [ACEPROMAZINE]	> 100 µM
CC[C@@H]1C(=O)N(C)c2cnc(Nc3ccc(C(=O)N[C@H]4CC[C@H](N5CCN(CC6CC6)CC5)CC4)cc3OC)nc2N1C(C)C [VOLASERTIB]	> 50.1 µM
CC(=O)[C@@]12OC(C)(c3ccccc3)O[C@@H]1CC1C3CCC4=CC(=O)CCC4(C)C3CCC12C (stereo not given in full)	> 100 µM
CO[C@H]1CC[C@H](n2c([C@H]3CCCC(=O)N3c3ccc(F)c(F)c3)nc3cc(-c4c(C)noc4C)ccc32)CC1 (relative stereo)	> 100 µM
CN1CCCC(n2nc(Cc3ccc(Cl)cc3)c3ccccc3c2=O)CC1 (stereo not given) [AZELASTINE]	13.2 µM
Cc1ccccc1CN1CCN(CCOC(c2ccccc2)c2ccccc2Cl)CC1 (stereo not given) [CHLORBENZOXAMINE]	> 100 µM
